We go through 2 compounds from patent US4496551A (priority 1983, dated 1985).

In series [1] the test system is Rhizoctonia solani. In words: rice sheath blight control on rice seedlings. The conditions noted are these: Rhizoctonia solani, 168 h, 7 days. It is filed as in vivo. The gist of the method: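 Rice seedlings sprayed to run-off with 100 ppm compound suspension (6% acetone, 250 ppm surfactant), then inoculated next day with bran/mycelium of Rhizoctonia solani. After 7 days in a growth room, sheath blight disease was rated.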

Series [2] concerns 5 Phytophthora species. The series is classed as cell-based. Particulars: 200.0 ppm in agar, 22° C., 6 days; controlled = radial growth 1 mm or less.
Series [3] has as its system Cercospora arachidicola. In words: peanut early leafspot control on peanut seedlings. The series is classed as in vivo. The conditions noted are these: Mycosphaerella arachidis, 336 h. The gist of the method: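 Compounds dissolved in acetone (6% of final volume) and suspended at 100 ppm in water with 250 ppm TREM 014, sprayed to run-off on seedlings. Cercospora arachidicola inoculated next day; 24 h saturated humidity at 27°, then 14 days growth room before disease and leafspot rating.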

The test system of series [4] is Erysiphe graminis. The experiment in a line: barley powdery mildew control on barley seedlings. The conditions noted are these: Blumeria graminis, 168 h; 100 ppm, 7 days. The series is classed as in vivo. The procedure:
Several compounds of the previous examples were again dissolved in acetone in an amount equal to 6% of the final volume and then suspended at a concentration of 100 ppm in purified water containing 250 ppm of the surfactant TREM 014 (polyhydric alcohol esters). This suspension was sprayed to the point of run-off on barley seedlings. The following day, the plants were inoculated with a spore suspension of the fungus Erysiphe graminis, causal agent of barley powdery mildew, and incubated in a growth room for 7 days. Disease ratings were then made. Treated plants had little or no powdery mildew in contrast to untreated plants which were covered with powdery mildew.

Series [5] concerns Helminthosporium maydis. In words: southern corn leaf blight control on corn seedlings. The series is classed as in vivo. Particulars: Bipolaris maydis, 168 h. A digest of the protocol:
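Corn seedlings were sprayed to run-off with 100 ppm compound (6% acetone, 250 ppm TREM 014), inoculated next day with H. maydis spores, then kept 24 h at 20° in saturated humidity and 7 more days in a growth room. Lesions were rated as disease score.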

In series [6] the test system is Uromyces phaseoli. The experiment in a line: bean rust control on bean seedlings. The conditions noted are these: 20 ppm. It is filed as in vivo. The procedure: Compounds of the previous examples were again dissolved in acetone in an amount equal to 6% of the final volume and then suspended at a concentration of 20 ppm in purified water containing 250 ppm of the surfactant TREM 014 (polyhydric alcohol esters). This suspension was sprayed to the point of run-off on bean seedlings. The following day, the plants were inoculated with a spore suspension of the fungus Uromyces phaseoli, causal agent of bean rust, and incubated in a saturated humidity chamber at 20° for 24 hours and then in a greenhouse for 7 days. Disease ratings were then made. Treated plants from successful treatments had few or no rust pustules in contrast to untreated plants which were covered with rust pustules.

For series [7], the system named is Puccinia recondita var. tritici. In words: wheat leaf rust control on wheat seedlings. The series is classed as in vivo. The conditions noted are these: 100 ppm, sprayed day before inoculation. A digest of the protocol:
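Compounds at 100 ppm (6% acetone, 250 ppm polyhydric alcohol ester surfactant in water) sprayed to run-off on wheat seedlings; inoculated next day with P. recondita spores. Kept 24 h at saturated humidity, 20°, then 7 days in growth room before rust pustule rating.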

The test system of series [8] is Venturia inaequalis. The experiment in a line: apple scab control on apple seedlings. It is filed as in vivo. Particulars: Venturia inaequalis; 100 ppm. The gist of the method: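 Apple seedlings sprayed to run-off with 100 ppm compound suspension (6% acetone, 250 ppm TREM 014 surfactant). Inoculated next day with Venturia inaequalis spores; 24 hours at 20° in saturated humidity, then 10-12 days in growth room. Scab lesions compared with untreated plants.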

Series [9] deals with Monilinia fructicola. The experiment in a line: stone fruit brown rot colony growth inhibition on canned peach halves. The conditions noted are these: 120 h, dipped 3 minutes, five days, percent growth inhibition of colonies, read-out: % Control Brown Rot. The series is classed as cell-based. An excerpt: Several compounds of the previous examples were again dissolved in acetone in an amount equal to 5% of the final volume and then suspended at a concentration of 100 ppm in purified water containing 700 ppm of the surfactant TREM 014 (polyhydric alcohol esters). Canned peach halves were dipped in this suspension for three minutes and then placed to air dry in sterile containers. Upon drying, the peach halves were inoculated with two pieces of Monilinia fructicola, causal agent of stone fruit brown rot, mycelium and then incubated in the sterile containers for five days. At that time the radii of the colonies' growth were measured on each peach. […] Percent disease contol (percent growth inhibition of colonies on treated peaches as compared to that of colonies on untreated peaches) is expressed in the table below.

The subject of series [10] is Pyricularia oryzae. The experiment in a line: whole plant or invertebrate. The series is classed as in vivo. Particulars: 168 h, read-out: % Control of Rice Blast.
Series [11] relates to Phytophthora infestans. The experiment in a line: whole plant or invertebrate. It is filed as in vivo. The conditions noted are these: Phytophthora infestans, in Solanum lycopersicum, 168 h, read-out: % Control of Tomato Late Blight.
In series [12] the test system is Erysiphe cichoracearum. The experiment in a line: cucumber powdery mildew control on cucumber seedlings. It is filed as in vivo. The conditions noted are these: Golovinomyces cichoracearum, 168 h, 7 days. A digest of the protocol: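 Compounds at 100 ppm in water with 6% acetone and 250 ppm TREM 014 surfactant, sprayed to run-off on cucumber seedlings. Inoculation with Erysiphe cichoracearum spores the following day; disease rated after 7 days in a growth room against untreated plants.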

Series [13] relates to cucumber seedlings. The experiment in a line: phytotoxicity on cucumber seedlings. The series is classed as in vivo. The conditions noted are these: 100 ppm. On the set-up: key: G: growth reduction; H: hormonal effects.
Series [14] relates to Pythium aphanadermatum. The experiment in a line: Pythium control on coated cotton seeds. The series is classed as in vivo. The conditions noted are these: 168 h, 2 gm/kg seed, 1 week. A digest of the protocol:
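Cotton seeds coated with formulated compound at 2 gm/kg seed, air dried, and planted in soil amended with Pythium aphanadermatum, sand and corn meal. Held 1 week at room temperature before disease rating.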

In series [15] the test system is Pythium aphanadermatum. In words: Pythium control on coated corn seeds. It is filed as in vivo. The conditions noted are these: 504 h, 2 gm/kg seed, 49° F. 2 weeks then 70° F. 1 week. A digest of the protocol: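 Formulated compounds were coated onto corn seeds at 2 gm/kg seed, air-dried and sown in soil infested with Pythium aphanadermatum at a rate lethal to most untreated seeds. Seeds were held 2 weeks at 49° F, then 1 week at 70° F, before disease rating.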

Consider `C[Si](C)(Cn1ccnc1)c1ccc(Cl)cc1Cl` [(2,4-Dichlorophenyl)dimethyl(1H-imidazol-1-ylmethyl)silane], for which the pest or weed control at 100 ppm is 0% in [1]; 100% in [3]; 100% in [4]; 70% in series [5]; 90% in [7]; 100% in [8]. Besides, the pest or weed control at 100 ppm in [10] came out at 0%; in series [11], 0%; in [12], 100%. Further, the “No. of 5 Phytophthora species controlled in vitro” value in series [2] is reported as 5. For the same compound, in series [6], the “% Control Bean Rust” value is recorded as 83%. Moreover, in series [9], the inhibition of growth at 100 ppm came out at 100%. Also, the “Phytotoxicity (growth reduction or hormonal effects)” value in series [13] is on record as “H”.

For the compound `C[Si](C)(Cn1ccnc1)c1ccc(-c2ccccc2)cc1` [(1,1'-Biphenyl-4-yl)dimethyl(1H-imidazol-1-ylmethyl)silane], the results for the pest or weed control at 2000 mg/kg in [14] and in series [15] were 18% and 32%, respectively. Also, the pest or weed control at 100 ppm in [1] turned out to be 0%; in series [3] it was 100%; in series [5] it was 90%; in series [7] it was 100%; in series [8], 80%; in series [10], 0%. In addition, the pest or weed control at 100 ppm in series [11] is 50%; in series [12] it was 100%. In addition, the “No. of 5 Phytophthora species controlled in vitro” value in [2] was 3. In addition, the “% Control Bean Rust” value in series [6] came out at 100%. Also, the inhibition of growth at 100 ppm in series [9] stood at 83%.
